Test results from patent US11040028B2, “Penicinotam derivative, preparation method and use thereof” (OCEAN UNIVERSITY OF CHINA, priority 2017, dated 2021).

Key:
Format in all cases: cell-based
[1] = system: human lung fibroblasts HFL1; assay: Anti-fibrosis activity test: inhibition of proliferation of human lung fibroblasts HFL1 (CCK-8); settings: human lung fibroblasts HFL1, CCK-8, 48 hours
Experimental: (§1) BHK-21 cells in exponential growth phase were selected. After the fusion growth reached 85-95%, normal passage method was utilized to digest and collect the cells, followed by cell counting and adjusting the cell density to 2×10^4 cells/mL. The cells were seeded into 96-well plates, 100 μL/well, and were incubated under the condition of 5% CO2 at 37° C.
(§2) The supernatant was removed after the cells had adhered to the wall for 24 hours. The culture solution containing the prepared compounds at different concentrations were added to the wells, 100 μL/well, each concentration in triplicate. The cells were subcultured for 48 hours after administration. Commercially available pirfenidone was employed as the positive control.
(§3) 10 μL of CCK-8 solution ( 1/10 of the volume of the culture solution) was added to each well 48 hours after the administration, and incubated for 2 hours. The absorbance (A) of each well was determined by a microplate reader at 450 nm wavelength. The inhibition rate against cell proliferation for each compound was calculated based on A, wherein inhibition rate against cell proliferation (inhibition ratio, IR)=(1−value of experimental group (Ai)/value of blank control group (Ao))×100% and the IC50 value of each compound was calculated by the data processing software.
(§4) Using the same protocol for the cell experiments, the inhibitory activity of the test compounds against the proliferation of human lung fibroblasts HFL1, human hepatic stellate cells LX-2, human fibrosarcoma cells HT-1080, human dermal fibroblasts CCC-ESF-1, human embryonic lung fibroblast IMR-90, cardiac fibroblast RAT-iCell-C002 was assayed.

BHK-21 cells = assay: Anti-fibrosis activity test: inhibition of BHK-21 cell proliferation (CCK-8)
Experimental: as §1, §2, §3

[2] = system: human embryonic lung fibroblast IMR-90; assay: Anti-fibrosis activity test: inhibition of proliferation of human embryonic lung fibroblast IMR-90 (CCK-8); settings: human embryonic lung fibroblast IMR-90, CCK-8, 48 hours
Experimental: as §1, §2, §3, §4

[3] = system: human hepatic stellate cells LX-2; assay: Anti-fibrosis activity test: inhibition of proliferation of human hepatic stellate cells LX-2 (CCK-8); settings: Homo sapiens, 48 h, human hepatic stellate cells LX-2, CCK-8, 48 hours
Experimental: as §1, §2, §3, §4

[4] = system: cardiac fibroblast RAT-iCell-C002; assay: Anti-fibrosis activity test: inhibition of proliferation of cardiac fibroblast RAT-iCell-C002 (CCK-8); settings: Cardiac fibroblast, 48 h, cardiac fibroblast RAT-iCell-C002, CCK-8, 48 hours
Experimental: as §1, §2, §3, §4

[5] = system: human fibrosarcoma cells HT-1080; assay: Anti-fibrosis activity test: inhibition of proliferation of human fibrosarcoma cells HT-1080 (CCK-8); settings: Homo sapiens, HT-1080, 48 h, human fibrosarcoma cells HT-1080, CCK-8, 48 hours
Experimental: as §1, §2, §3, §4

[6] = system: human dermal fibroblasts CCC-ESF-1; assay: Anti-fibrosis activity test: inhibition of proliferation of human dermal fibroblasts CCC-ESF-1 (CCK-8); settings: human dermal fibroblasts CCC-ESF-1, CCK-8, 48 hours
Experimental: as §1, §2, §3, §4

[7] = Mesocricetus auratus, BHK-21, 48 h, CCK-8, 48 hours after administration

| Compound | IC50 [1] | IC50 (BHK-21 cells; CCK-8, 48 hours after administration) | IC50 [2] | IC50 [3] | IC50 [4] | IC50 ([1]; Homo sapiens, HFL1, 48 h) | IC50 (BHK-21 cells; [7]) | IC50 [5] | IC50 ([6]; Fibroblast) | IC50 [6] | IC50 (BHK-21 cells; 48 h, CCK-8) |
| --- | --- | --- | --- | --- | --- | --- | --- | --- | --- | --- | --- |
| O=C1c2c(nc3cc(N4CCNCC4)ccc3c2OCc2ccc(F)cc2F)-c2cccn21 [Compound 630b, 9-((2,4-difluorobenzyl)oxy)-6-(piperazin-1-yl)-10H-pyrrolizino[1,2-b]quinolin-10-one] | 5 to 20 mM | 0.05 to 5 mM |  |  |  |  |  |  |  |  |  |
| O=C1c2c(n(Cc3ccc(Cl)cc3)c3cc(N4CCNCC4)c(F)cc3c2=O)-c2cccn21 [Compound 632a, 4-(4-Chlorobenzyl)-7-fluoro-6-(piperazin-1-yl)-9H-pyrrolizino[1,2-b]quinoline-9,10(4H)-dione] |  |  | 0.05 to 5 mM | 0.05 to 5 mM | 0.05 to 5 mM | 0.05 to 5 mM | 0.05 to 5 mM | 0.05 to 5 mM | < 0.05 mM |  |  |
| O=C1c2c(nc3cc(N4CCNCC4)c(F)cc3c2OCc2ccc(Cl)cc2)-c2cccn21 [Compound 632b, 9-((4-chlorobenzyl)oxy)-7-fluoro-6-(piperazin-1-yl)-10H-pyrrolizino[1,2-b]quinolin-10-one] |  |  | 0.05 to 5 mM | 0.05 to 5 mM | 0.05 to 5 mM | 0.05 to 5 mM | 0.05 to 5 mM | 0.05 to 5 mM | 0.05 to 5 mM |  |  |
| O=C1c2c(n(Cc3ccc(Br)cc3)c3cc(N4CCNCC4)c(F)cc3c2=O)-c2cccn21 [Compound 633a, 4-(4-Bromobenzyl)-7-fluoro-6-(piperazin-1-yl)-9H-pyrrolizino[1,2-b]quinoline-9,10(4H)-dione] |  |  | 0.05 to 5 mM | 0.05 to 5 mM | 0.05 to 5 mM | 0.05 to 5 mM | < 0.05 mM | 0.05 to 5 mM | 0.05 to 5 mM |  |  |
| O=C1c2c(nc3cc(N4CCNCC4)c(F)cc3c2OCc2ccc(Br)cc2)-c2cccn21 [Compound 633b, 9-((4-bromobenzyl)oxy)-7-fluoro-6-(piperazin-1-yl)-10H-pyrrolizino[1,2-b]quinolin-10-one] |  |  | 0.05 to 5 mM | 0.05 to 5 mM | 0.05 to 5 mM | 0.05 to 5 mM | 0.05 to 5 mM | 0.05 to 5 mM | 0.05 to 5 mM |  |  |
| O=C1c2c(n(Cc3ccc(F)cc3)c3cc(N4CCNCC4)c(F)cc3c2=O)-c2cccn21 [Compound 634a, 7-Fluoro-4-(4-fluorobenzyl)-6-(piperazin-1-yl)-9H-pyrrolizino[1,2-b]quinoline-9,10(4H)-dione] |  |  | 0.05 to 5 mM | 0.05 to 5 mM | 0.05 to 5 mM | 0.05 to 5 mM | 0.05 to 5 mM | 0.05 to 5 mM | 0.05 to 5 mM |  |  |
| O=C1c2c(nc3cc(N4CCNCC4)c(F)cc3c2OCc2ccc(F)cc2)-c2cccn21 [Compound 634b, 7-fluoro-9-((4-fluorobenzyl)oxy)-6-(piperazin-1-yl)-10H-pyrrolizino[1,2-b]quinolin-10-one] |  |  | 0.05 to 5 mM | 0.05 to 5 mM | 0.05 to 5 mM | 0.05 to 5 mM | 0.05 to 5 mM | 0.05 to 5 mM | 0.05 to 5 mM |  |  |
| N#Cc1ccc(Cn2c3c(c(=O)c4cc(F)c(N5CCNCC5)cc42)C(=O)n2cccc2-3)cc1 [Compound 635a, 4-((7-Fluoro-9,10-dioxo-6-(piperazin-1-yl)-9H-pyrrolizino[1,2-b]quinolin-4(10H)-yl)methyl)benzonitrile] |  |  | 0.05 to 5 mM | 0.05 to 5 mM | 0.05 to 5 mM | 0.05 to 5 mM | 0.05 to 5 mM | 0.05 to 5 mM | 0.05 to 5 mM |  |  |
| N#Cc1ccc(COc2c3c(nc4cc(N5CCNCC5)c(F)cc24)-c2cccn2C3=O)cc1 [Compound 635b, 4-(((7-fluoro-10-oxo-6-(piperazin-1-yl)-10H-pyrrolizino[1,2-b]quinolin-9-yl)oxy)methyl)benzonitrile] |  |  | 0.05 to 5 mM | 0.05 to 5 mM | 0.05 to 5 mM | 0.05 to 5 mM | 0.05 to 5 mM | 0.05 to 5 mM | 0.05 to 5 mM |  |  |
| O=C1c2c(n(Cc3cc(C(F)(F)F)cc(C(F)(F)F)c3)c3cc(N4CCNCC4)c(F)cc3c2=O)-c2cccn21 [Compound 639a, 4-(3,5-Bis(trifluoromethyl)benzyl)-7-fluoro-6-(piperazin-1-yl)-9H-pyrrolizino[,2-b]quinoline-9,10(4H)-dione] |  |  |  |  |  |  |  |  |  | < 0.05 mM |  |
| Cc1cc2n(c1)C(=O)c1c-2nc2ccccc2c1O [Compound 801b, 9-hydroxy-2-methyl-0H-pyrrolizino[1,2-b]quinolin-10-one] |  |  |  |  |  |  |  |  |  |  | 0.05 to 5 mM |
